Source: patent US7078428B2, “Isoindolone derivatives, preparation process and intermediates of this process, their use as medicaments, and pharmaceutical compositions comprising them” (Sanofi-Aventis Deutschland GmbH, priority 2002, dated 2006)
“And” between values parts separate entries of the source, which are not always exact repeats. Equal values may be shown once. Where a name gives a salt, the structure may show the parent alone.

Biological target: T1, NHE1 (Homo sapiens, UniProt P19634)
T1 construct: expressed in transfected cells
T1 sequence (P19634 whole entry, species assumed): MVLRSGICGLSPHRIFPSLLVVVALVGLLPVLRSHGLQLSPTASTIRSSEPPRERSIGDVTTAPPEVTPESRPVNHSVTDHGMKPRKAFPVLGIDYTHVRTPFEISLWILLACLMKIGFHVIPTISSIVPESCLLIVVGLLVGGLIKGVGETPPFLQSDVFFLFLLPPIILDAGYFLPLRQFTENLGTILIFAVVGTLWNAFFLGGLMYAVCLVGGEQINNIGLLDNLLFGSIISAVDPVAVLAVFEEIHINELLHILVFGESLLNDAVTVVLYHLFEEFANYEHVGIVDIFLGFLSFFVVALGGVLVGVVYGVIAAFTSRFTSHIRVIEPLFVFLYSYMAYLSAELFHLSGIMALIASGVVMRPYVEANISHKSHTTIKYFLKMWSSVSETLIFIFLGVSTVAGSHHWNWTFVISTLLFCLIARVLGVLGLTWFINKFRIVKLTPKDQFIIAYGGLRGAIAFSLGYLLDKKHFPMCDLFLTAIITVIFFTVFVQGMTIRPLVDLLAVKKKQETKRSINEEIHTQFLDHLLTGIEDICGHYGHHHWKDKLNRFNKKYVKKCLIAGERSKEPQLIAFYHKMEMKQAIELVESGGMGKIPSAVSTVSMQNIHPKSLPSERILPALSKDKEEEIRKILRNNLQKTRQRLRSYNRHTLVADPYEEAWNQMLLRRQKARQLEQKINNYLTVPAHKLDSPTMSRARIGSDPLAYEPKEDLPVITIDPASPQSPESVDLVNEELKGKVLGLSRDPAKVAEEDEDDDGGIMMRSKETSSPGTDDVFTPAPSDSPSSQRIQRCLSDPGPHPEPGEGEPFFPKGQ
Assay: NHE inhibition FLIPR test (intracellular pH recovery, BCECF) in transfected LAP-1 cells
Type: cell-based
Conditions: transfected cell line (parental LAP-1) expressing the NHE-1 subtype, pHi recovery after acidification
Experimental: The NHE inhibitory activities (IC50 values) of the compounds according to the invention were determined by a FLIPR test.
The test is performed in the FLIPR (Fluorescent Imaging Plate Reader) equipped with clear-bottomed and black-walled 96-well microtitration plates.
The growth medium for the transfected cells (Iscove +10% foetal calf serum) also comprises G418 as selection antibiotic to ensure the presence of transfected sequences.
The actual test begins by eliminating the growth medium and adding 100 μl of loading buffer per well (5 μM of BCECF-AM [2′,7′-bis(2-carboxyethyl)-5-(6)-carboxyfluoresceine acetoxymethyl ester] in 20 mM of NH4Cl, 115 mM of choline chloride, 1 mM of CaCl2, 5 mM of KCl, 20 mM of HEPES and 5 mM of glucose; pH 7.4 (adjusted with KOH). The cells are then incubated for 20 minutes at 37° C. This incubation results in the loading of the fluorescent dye into the cells, the fluorescence intensity of which depends on the pHi, and on the NH4Cl, which results in a slight basification of the cells.
The precursor BCECF-AM, a non-fluorescent dye, is, as an ester, capable of crossing the membrane. The actual dye, which is incapable of crossing the membrane, is released inside the cell by esterases.
After this 20-minute incubation, the loading buffer, which comprises NH4Cl and free BCECF-AM, is removed by washing three times in the cell washing device (Tecan Columbus), each wash being performed with 400 μl of washing buffer (133.8 mM of choline chloride, 4.7 mM of KCl, 1.25 mM of MgCl2, 1.25 mM of CaCl2, 0.97 mM of K2HPO4, 0.23 mM of KH2PO4, 5 mM of HEPES and 5 mM of glucose; pH 7.4 (adjusted with KOH)). The residual volume remaining in the wells is 90 μl (possibly between 50 and 125 μl). This washing step removes the free BCECF-AM and results in an intracellular acidification (pHi of 6.3-6.4) due to the removal of the external ammonium ions.
As the equilibrium of the intracellular ammonium with the aqueous ammonia and the protons, by removal of the extracellular ammonium and by the subsequent immediate crossing of the aqueous ammonia across the cell membrane, is disrupted, the washing process results in intracellular protons remaining, which is the cause of the intracellular acidification. This acidification can result finally in the death of the cells if it lasts long enough. It is important here for the washing buffer to be free of sodium (<1 mM), otherwise the extracellular sodium ions would result in an immediate increase in the pHi on account of the activity of the cloned NHE isoforms. It is also important for all the buffers used (loading buffer, washing buffer and regeneration buffer) not to contain any HCO3-ions, otherwise the presence of bicarbonate would result in the activation of bicarbonate-dependent systems that disrupt the pHi regulation, which systems are contained in the LAP-1 parental cell line.
The microtiter plates containing acidified cells are then transferred (up to 20 minutes after the acidification) to the FLIPR. In the FLIPR, the intracellular fluorescent dye is activated with light of a wavelength of 488 nm, which is generated by an argon laser, and the measuring parameters (laser power, illumination time and diaphragm of the […] camera integrated into the FLIPR) are chosen such that the average value of the fluorescent signal per well is between 30,000 and 35,000 relative fluorescence units.
The actual measurement in the FLIPR starts with a photograph being taken by the CCD camera every two seconds under software control. After 10 seconds, the increase in the intracellular pH is initiated by adding 90 μl of regeneration buffer (133.8 mM of NaCl, 4.7 mM of KCl, 1.25 mM of MgCl2, 1.25 mM of CaCl2, 0.97 mM of K2HPO4, 0.23 mM of KH2PO4, 10 mM of HEPES and 5 mM of glucose; pH 7.4 (adjusted with NaOH)) using a 96-well pipette device incorporated into the FLIPR. Some wells, to which is added pure regeneration buffer, serve as positive controls (100% NHE activity). […]

Row | SMILES | IC50
1 | N=C(N)NC(=O)CC1c2cc(F)c(F)cc2C(=O)N1CCC(F)(F)F (racemic) [Example 40, (R)-N-{2-[5,6-Difluoro-3-oxo-2-(3,3,3-trifluoro-propyl)-2,3-dihydro-1H-isoindol-1-yl]-acetyl}-guanidine and (S)-N-{2-[5,6-Difluoro-3-oxo-2-(3,3,3-trifluoro-propyl)-2,3-dihydro-1H-isoindol-1-yl]-acetyl}-guanidine] | 29 nM
2 | [H]/N=C(\N)NC(=O)CC1c2cc(Cl)c(Cl)cc2C(=O)N1CC1CC1 (racemic) [Example 42, (R)-N-[2-(5,6-Dichloro-2-cyclopropylmethyl-3-oxo-2,3-dihydro-1H-isoindol-1-yl)-acetyl]-guanidine and (S)-N-[2-(5,6-Dichloro-2-cyclopropylmethyl-3-oxo-2,3-dihydro-1H-isoindol-1-yl)-acetyl]-guanidine] | 18 nM
3 | NC(N)=NC(=O)CC1c2cc(Cl)c(Cl)cc2C(=O)N1C1CC1 (racemic) [Example 43, (R)-N-[2-(5,6-Dichloro-2-cyclopropyl-3-oxo-2,3-dihydro-1H-isoindol-1-yl)-acetyl]-guanidine and (S)-N-[2-(5,6-Dichloro-2-cyclopropyl-3-oxo-2,3-dihydro-1H-isoindol-1-yl)-acetyl]-guanidine] | 30 nM
4 | CC(C(=O)NC(=N)N)C1c2ccccc2C(=O)N1CCO (single isomer, unassigned) [Example 33] | 3600 nM and 4700 nM
5 | [H]/N=C(\N)NC(=O)CC1c2cc(S(C)(=O)=O)ccc2C(=O)N1CC(F)(F)F (single isomer, unassigned) [Example 36a] | 524 nM
6 | [H]/N=C(\N)NC(=O)CC1c2cc(S(C)(=O)=O)ccc2C(=O)N1CC(F)(F)F (single isomer, unassigned) [Example 36b] | 6 nM
7 | NC(N)=NC(=O)CC1c2cc(C(F)(F)F)ccc2C(=O)N1CC1CC1 (single isomer, unassigned) [Example 38a] | 249 nM
8 | NC(N)=NC(=O)CC1c2cc(C(F)(F)F)ccc2C(=O)N1CC1CC1 (single isomer, unassigned) [Example 38b] | 5 nM
9 | N=C(N)NC(=O)CC1c2cc(F)c(F)cc2C(=O)N1CCC(F)(F)F (single isomer, unassigned) [Example 40a] | 263 nM
10 | N=C(N)NC(=O)CC1c2cc(F)c(F)cc2C(=O)N1CCC(F)(F)F (single isomer, unassigned) [Example 40b] | 63 nM
11 | [H]/N=C(\N)NC(=O)CC1c2cc(Cl)c(Cl)cc2C(=O)N1CCC(F)(F)F (single isomer, unassigned) [Example 41b] | 41 nM
12 | [H]/N=C(\N)NC(=O)CC1c2cc(Cl)c(Cl)cc2C(=O)N1CCC(F)(F)F (single isomer, unassigned) [Example 41c] | 19 nM
13 | [H]/N=C(\N)NC(=O)CC1c2cc(Cl)c(Cl)cc2C(=O)N1CC1CC1 (single isomer, unassigned) [Example 42a] | 66 nM
14 | [H]/N=C(\N)NC(=O)CC1c2cc(Cl)c(Cl)cc2C(=O)N1CC1CC1 (single isomer, unassigned) [Example 42b] | 3 nM
15 | NC(N)=NC(=O)CC1c2cc(Cl)c(Cl)cc2C(=O)N1C1CC1 (single isomer, unassigned) [Example 43a] | 53 nM
16 | NC(N)=NC(=O)CC1c2cc(Cl)c(Cl)cc2C(=O)N1C1CC1 (single isomer, unassigned) [Example 43b] | 442 nM
17 | NC(N)=NC(=O)CC1c2cc(Cl)c(Cl)cc2C(=O)N1CC(F)(F)F (single isomer, unassigned) [Example 44b] | 13 nM
18 | NC(N)=NC(=O)CC1c2cc(Cl)c(Cl)cc2C(=O)N1CC(F)(F)F (single isomer, unassigned) [Example 44c] | 260 nM
19 | NC(N)=NC(=O)CC1c2cc(C(F)(F)F)ccc2C(=O)N1CC(F)(F)F (single isomer, unassigned) [Example 48, N-{2-[3-Oxo-2-(2,2,2-trifluoro-ethyl)-6-trifluoromethyl-2,3-dihydro-1H-isoindol-1-yl]-acetyl}-guanidine hydrogen fumarate] | 0.2 nM
20 | CC(C)CN1C(=O)c2ccccc2C1CC(=O)N=C(N)N (single isomer, unassigned; (+)) [Example 4, (+)-N-[2-(2-Isobutyl-3-oxo-2,3-dihydro-1H-isoindol-1-yl)acetyl]guanidine] | 57 nM

Now from value to molecule:

Row | IC50 | SMILES
21 | 19 nM | NC(N)=NC(=O)CC1c2cc(C(F)(F)F)ccc2C(=O)N1CC(F)(F)F (single isomer, unassigned) [Example 46a]
22 | 0.2 nM | NC(N)=NC(=O)CC1c2cc(C(F)(F)F)ccc2C(=O)N1CC(F)(F)F (single isomer, unassigned) [Example 46b]
23 | 70 nM | NC(N)=NC(=O)CC1c2ccc(C(F)(F)F)cc2C(=O)N1CC(F)(F)F (single isomer, unassigned) [Example 47a]
24 | 5790 nM | NC(N)=NC(=O)CC1c2ccc(C(F)(F)F)cc2C(=O)N1CC(F)(F)F (single isomer, unassigned) [Example 47b]
25 | 1 nM | NC(N)=NC(=O)CC1c2cc(Cl)ccc2C(=O)N1CCC(F)(F)F (single isomer, unassigned) [Example 49a]
26 | 13 nM | NC(N)=NC(=O)CC1c2cc(Cl)ccc2C(=O)N1CCC(F)(F)F (single isomer, unassigned) [Example 49b]
27 | 9 nM | NC(N)=NC(=O)CC1c2ccc(Cl)cc2C(=O)N1CCC(F)(F)F (single isomer, unassigned) [Example 50a]
28 | 6 nM | NC(N)=NC(=O)CC1c2ccc(Cl)cc2C(=O)N1CCC(F)(F)F (single isomer, unassigned) [Example 50b]
29 | 6 nM | NC(N)=NC(=O)CC1c2cc(C(F)(F)F)ccc2C(=O)N1CCC(F)(F)F (single isomer, unassigned) [Example 51a]
30 | 171 nM | NC(N)=NC(=O)CC1c2cc(C(F)(F)F)ccc2C(=O)N1CCC(F)(F)F (single isomer, unassigned) [Example 51b]
31 | 50 nM | NC(N)=NC(=O)CC1c2ccc(C(F)(F)F)cc2C(=O)N1CCC(F)(F)F (single isomer, unassigned) [Example 52a]
32 | 671 nM | NC(N)=NC(=O)CC1c2ccc(C(F)(F)F)cc2C(=O)N1CCC(F)(F)F (single isomer, unassigned) [Example 52b]
33 | 83 nM | NC(N)=NC(=O)CC1c2cc(Cl)ccc2C(=O)N1CCCC(F)(F)F (single isomer, unassigned) [Example 53a]
34 | 16 nM | NC(N)=NC(=O)CC1c2cc(Cl)ccc2C(=O)N1CCCC(F)(F)F (single isomer, unassigned) [Example 53b]
35 | 944 nM | NC(N)=NC(=O)CC1c2ccc(Cl)cc2C(=O)N1CCCC(F)(F)F (single isomer, unassigned) [Example 54a]
36 | 48 nM | NC(N)=NC(=O)CC1c2ccc(Cl)cc2C(=O)N1CCCC(F)(F)F (single isomer, unassigned) [Example 54b]
37 | 2 nM | NC(N)=NC(=O)CC1c2cc(Cl)ccc2C(=O)N1CC1CC1 (single isomer, unassigned) [Example 55a]
38 | 20 nM | NC(N)=NC(=O)CC1c2cc(Cl)ccc2C(=O)N1CC1CC1 (single isomer, unassigned) [Example 55b]
39 | 28 nM | NC(N)=NC(=O)CC1c2ccc(Cl)cc2C(=O)N1CC1CC1 (single isomer, unassigned) [Example 56a]
40 | 18 nM | NC(N)=NC(=O)CC1c2ccc(Cl)cc2C(=O)N1CC1CC1 (single isomer, unassigned) [Example 56b]
